pIC50: −log10 of the molar value. Where “and” joins values, the source holds several entries; their conditions need not be identical. Identical values can stand only once. Like-named read-outs stand apart in the source and are kept apart here.
Legend:
[1] = tested on: L1 wild-type C. elegans; test: 15-hour motility assay with drug alone (no KCN); assay type: cell-based, Caenorhabditis elegans
[2] = tested on: L1 P. pacificus (PS312); test: Liquid development and viability assay, P. pacificus; assay type: cell-based, Pristionchus pacificus; details: liquid growth and development assay, 1 = like DMSO control, 0 = death
Text: Supplementary Figure 9. Class A, B, and C benzimidazoles inhibit complex I of several Clade V nematode species in vitro. […]
against the in vitro complex I activity from C. elegans, C. briggsae, P. pacificus, and P. hermaphrodita […]
L1 C. elegans (N2), C. briggsae (AF16), and P. pacificus (PS312) in a nematode liquid growth and development assay. The colour-coded scale denotes the viability of nematodes following drug treatment relative to DMSO controls; white/pale-yellow indicates nematode growth and viability similar to DMSO controls and red indicates nematode death and arrested development. Data are the mean of at least three biological replicates. Due to seemingly poor growth in liquid culture, P. hermaphrodita was not tested in the liquid viability and development assay.
Supplementary Figure 9 (continued). Davie et al.

[3] = tested on: C. elegans ben-1 mutant strains ECA882, ECA917, ECA1075, ECA1080, CB3474; assay type: cell-based, Caenorhabditis elegans; details: score 0-1 relative to DMSO, values >1 set to 1
[4] = biological target: H. sapiens (HEK293 cells) complex I (Homo sapiens, UniProt O75251+O75306+P03886); test: In vitro complex I activity assay, HEK293 cell mitochondria; assay type: biochemical
Sequence of H. sapiens (HEK293 cells) complex I (O75251 39-213): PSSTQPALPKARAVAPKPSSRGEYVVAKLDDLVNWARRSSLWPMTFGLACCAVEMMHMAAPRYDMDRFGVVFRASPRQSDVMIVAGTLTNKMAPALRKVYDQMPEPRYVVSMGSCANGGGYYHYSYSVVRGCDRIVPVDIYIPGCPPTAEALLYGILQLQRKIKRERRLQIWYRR
Sequence of H. sapiens (HEK293 cells) complex I (P03886 whole entry): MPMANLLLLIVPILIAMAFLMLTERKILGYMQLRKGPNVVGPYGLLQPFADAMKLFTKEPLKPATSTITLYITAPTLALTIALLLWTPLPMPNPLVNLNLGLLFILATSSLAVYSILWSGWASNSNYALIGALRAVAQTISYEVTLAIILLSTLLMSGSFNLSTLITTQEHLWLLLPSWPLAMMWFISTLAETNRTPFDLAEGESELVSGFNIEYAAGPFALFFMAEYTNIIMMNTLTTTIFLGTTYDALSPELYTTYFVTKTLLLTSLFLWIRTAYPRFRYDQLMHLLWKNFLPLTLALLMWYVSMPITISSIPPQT
Sequence of H. sapiens (HEK293 cells) complex I (O75306 34-463): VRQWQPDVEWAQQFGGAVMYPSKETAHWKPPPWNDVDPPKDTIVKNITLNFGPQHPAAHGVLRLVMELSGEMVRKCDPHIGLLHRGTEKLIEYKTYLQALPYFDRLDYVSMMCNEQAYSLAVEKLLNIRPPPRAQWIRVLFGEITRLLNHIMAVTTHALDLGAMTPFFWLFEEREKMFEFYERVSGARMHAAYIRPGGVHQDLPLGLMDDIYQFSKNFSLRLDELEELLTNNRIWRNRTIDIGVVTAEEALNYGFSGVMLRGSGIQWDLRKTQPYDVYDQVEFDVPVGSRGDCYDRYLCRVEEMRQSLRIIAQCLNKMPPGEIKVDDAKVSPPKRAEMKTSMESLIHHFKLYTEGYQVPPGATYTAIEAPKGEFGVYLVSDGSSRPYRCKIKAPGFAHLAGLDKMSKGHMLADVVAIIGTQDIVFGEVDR

[5] = tested on: H. polygyrus; details: cited from earlier work
[6] = 15 hour drug alone (without KCN) treatment, dose 0.1 µM, Mean of replicates
[7] = 15 hour drug alone (without KCN) treatment, dose 0.1 µM, individual replicates
[8] = 15 hour drug alone (without KCN) treatment, dose 0.2 µM, Mean of replicates
[9] = 15 hour drug alone (without KCN) treatment, dose 0.2 µM, individual replicates
[10] = 15 hour drug alone (without KCN) treatment, dose 0.4 µM, Mean of replicates
[11] = 15 hour drug alone (without KCN) treatment, dose 0.4 µM, individual replicates
[12] = 15 hour drug alone (without KCN) treatment, dose 0.8 µM, Mean of replicates
[13] = 15 hour drug alone (without KCN) treatment, dose 0.8 µM, individual replicates
[14] = 15 hour drug alone (without KCN) treatment, dose 3.1 µM, Mean of replicates
[15] = 15 hour drug alone (without KCN) treatment, dose 3.1 µM, individual replicates
[16] = 15 hour drug alone (without KCN) treatment, dose 6.3 µM, Mean of replicates
[17] = 15 hour drug alone (without KCN) treatment, dose 6.3 µM, individual replicates
[18] = 15 hour drug alone (without KCN) treatment, dose 12.5 µM, Mean of replicates
[19] = 15 hour drug alone (without KCN) treatment, dose 12.5 µM, individual replicates
[20] = 15 hour drug alone (without KCN) treatment, dose 25 µM, Mean of replicates
[21] = 15 hour drug alone (without KCN) treatment, dose 25 µM, individual replicates
[22] = 15 hour drug alone (without KCN) treatment, dose 50 µM, Mean of replicates
[23] = 15 hour drug alone (without KCN) treatment, dose 50 µM, individual replicates
[24] = 15 hour drug alone (without KCN) treatment, dose 100 µM, Mean of replicates
[25] = 15 hour drug alone (without KCN) treatment, dose 100 µM, individual replicates

Structure (SMILES): O=C(NCCc1ccc(Cl)cc1)c1ccccc1C(F)(F)F [Wact-11]
- Value relative to DMSO control, drug alone (without KCN) [1]: 0.932
- Value relative to DMSO control, drug alone (without KCN) [1, 6]: 1.053
- Value relative to DMSO control, drug alone (without KCN) [1, 7]: 0.994 and 1.015 and 1.070 and 1.131
- Value relative to DMSO control, drug alone (without KCN) [1, 8]: 1.080
- Value relative to DMSO control, drug alone (without KCN) [1, 9]: 0.940 and 1.013 and 1.214 and 1.154
- Value relative to DMSO control, drug alone (without KCN) [1, 10]: 1.046
- Value relative to DMSO control, drug alone (without KCN) [1, 11]: 0.988 and 1.230 and 1.034
- Value relative to DMSO control, drug alone (without KCN) [1, 12]: 1.007
- Value relative to DMSO control, drug alone (without KCN) [1, 13]: 0.912 and 0.907 and 0.949 and 1.257
- Value relative to DMSO control, drug alone (without KCN) [1, 14]: 0.983
- Value relative to DMSO control, drug alone (without KCN) [1, 15]: 0.954 and 0.915 and 1.162 and 0.901
- Value relative to DMSO control, drug alone (without KCN) [1, 16]: 0.923
- Value relative to DMSO control, drug alone (without KCN) [1, 17]: 0.914 and 0.918 and 0.975 and 0.884
- Value relative to DMSO control, drug alone (without KCN) [1, 18]: 0.780
- Value relative to DMSO control, drug alone (without KCN) [1, 19]: 0.693 and 0.662 and 1.090 and 0.677
- Value relative to DMSO control, drug alone (without KCN) [1, 20]: 0.783
- Value relative to DMSO control, drug alone (without KCN) [1, 21]: 0.523 and 0.436 and 0.991 and 1.184
- Value relative to DMSO control, drug alone (without KCN) [1, 22]: 0.600
- Value relative to DMSO control, drug alone (without KCN) [1, 23]: 0.549 and 0.392 and 0.803 and 0.657
- Value relative to DMSO control, drug alone (without KCN) [1, 24]: 0.425
- Value relative to DMSO control, drug alone (without KCN) [1, 25]: 0.232 and 0.150 and 0.884 and 0.433

Structure (SMILES): Cc1nc2ccccc2n1Cc1ccc(Cl)cc1 [STK697993]
- viability score (0-1) relative to DMSO controls ([2]; 2 µM): 1.000
- viability score (0-1) relative to DMSO controls ([2]; 3.9 µM): 1.000
- viability score (0-1) relative to DMSO controls ([2]; 15.6 µM): 0.943
- viability score (0-1) relative to DMSO controls ([2]; 31.3 µM): 0.0076
- viability score (0-1) relative to DMSO controls ([2]; 62.5 µM): 0.000
- viability score (0-1) relative to DMSO controls ([2]; 125 µM): 0.007
- viability score (0-1) relative to DMSO controls ([2]; 250 µM): 0.026

Structure (SMILES): c1ccc2[nH]c(-c3cscn3)nc2c1 [Thiabendazole]
- C. elegans L1 relative motility, 3-hour post 200 µM KCN dilution [3]: 1.000

Structure (SMILES): Cc1cc(O)c2c(c1)O[C@@]1(C)CC[C@H]3C(C)(C)CCC[C@]34CO[C@@H]2[C@H]41 [Siccanin]
- Value relative to DMSO control, drug alone (without KCN) [1, 6]: 1.015
- Value relative to DMSO control, drug alone (without KCN) [1, 7]: 1.185 and 1.067 and 1.014 and 0.891 and 0.918
- Value relative to DMSO control, drug alone (without KCN) [1, 8]: 1.093
- Value relative to DMSO control, drug alone (without KCN) [1, 9]: 1.232 and 1.040 and 1.048 and 0.936 and 1.206
- Value relative to DMSO control, drug alone (without KCN) [1, 10]: 1.048
- Value relative to DMSO control, drug alone (without KCN) [1, 11]: 1.109 and 1.211 and 1.036 and 0.917 and 0.964
- Value relative to DMSO control, drug alone (without KCN) [1, 12]: 1.013
- Value relative to DMSO control, drug alone (without KCN) [1, 13]: 1.207 and 1.062 and 0.959 and 0.891 and 0.945
- Value relative to DMSO control, drug alone (without KCN) [1, 14]: 1.008
- Value relative to DMSO control, drug alone (without KCN) [1, 15]: 1.037 and 1.098 and 0.979 and 0.904 and 1.020
- Value relative to DMSO control, drug alone (without KCN) [1, 16]: 0.898
- Value relative to DMSO control, drug alone (without KCN) [1, 17]: 0.890 and 0.970 and 0.950 and 0.655 and 1.026
- Value relative to DMSO control, drug alone (without KCN) [1, 18]: 0.790
- Value relative to DMSO control, drug alone (without KCN) [1, 19]: 1.073 and 0.897 and 0.844 and 0.477 and 0.657
- Value relative to DMSO control, drug alone (without KCN) [1, 20]: 0.737
- Value relative to DMSO control, drug alone (without KCN) [1, 21]: 0.991 and 0.757 and 0.575 and 0.705 and 0.658
- Value relative to DMSO control, drug alone (without KCN) [1, 22]: 0.668
- Value relative to DMSO control, drug alone (without KCN) [1, 23]: 0.587 and 0.826 and 0.603 and 0.513 and 0.810
- Value relative to DMSO control, drug alone (without KCN) [1, 24]: 0.433
- Value relative to DMSO control, drug alone (without KCN) [1, 25]: 0.545 and 0.463 and 0.295 and 0.375 and 0.488

Structure (SMILES): CC(C)Cc1ccc(C(C)c2nc3ccccc3n2C)cc1 (centres unmarked) [NPD8790]
- remaining activity at 0.06 µM ([4]; H. sapiens (HEK293 cells) mitochondria, 0.06 µM, Mean of replicates, read-out: in vitro complex I activity relative to solvent control): 90.2%
- remaining activity at 0.13 µM ([4]; H. sapiens (HEK293 cells) mitochondria, 0.13 µM, Mean of replicates, read-out: in vitro complex I activity relative to solvent control): 78.3%
- remaining activity at 0.313 µM ([4]; H. sapiens (HEK293 cells) mitochondria, 0.313 µM, Mean of replicates, read-out: in vitro complex I activity relative to solvent control): 76.7%
- remaining activity at 0.625 µM ([4]; H. sapiens (HEK293 cells) mitochondria, 0.625 µM, Mean of replicates, read-out: in vitro complex I activity relative to solvent control): 129%
- remaining activity at 1.5 µM ([4]; H. sapiens (HEK293 cells) mitochondria, 1.5 µM, Mean of replicates, read-out: in vitro complex I activity relative to solvent control): 95.7%
- remaining activity at 3 µM ([4]; H. sapiens (HEK293 cells) mitochondria, 3 µM, Mean of replicates, read-out: in vitro complex I activity relative to solvent control): 102%
- remaining activity at 15 µM ([4]; H. sapiens (HEK293 cells) mitochondria, 15 µM, Mean of replicates, read-out: in vitro complex I activity relative to solvent control): 85.1%
- remaining activity at 37.5 µM ([4]; H. sapiens (HEK293 cells) mitochondria, 37.5 µM, Mean of replicates, read-out: in vitro complex I activity relative to solvent control): 52.8%
- remaining activity at 75 µM ([4]; H. sapiens (HEK293 cells) mitochondria, 75 µM, Mean of replicates, read-out: in vitro complex I activity relative to solvent control): 61.5%
- pIC50 ([4]; mitochondria purified from HEK293 cells): < 4.12

Structure (SMILES): COC(=O)Nc1nc2ccc(C(=O)c3ccccc3)cc2[nH]1 [mebendazole, reference compound]
- C. elegans L1 relative motility, 3-hour post 200 µM KCN dilution [3]: 1.000
- reduction in worm burden, H. polygyrus murine model ([5]; single 300 mg/kg dose): 63.5%

Structure (SMILES): COC(=O)Nc1nc2ccc(Sc3ccccc3)cc2[nH]1 [fenbendazole, reference compound]
- reduction in H. polygyrus worm burden ([5]; single dose 100 mg/kg, mice): 90%

— article PMC11079024, “Identification of a family of species-selective complex I inhibitors as potential anthelmintics” (Nature Communications, 2024)
